Experimental data as given in patent publication US20230233684A1, “USE OF CHELATORS FOR THE PREVENTION OF VISIBLE PARTICLE FORMATION IN PARENTERAL PROTEIN SOLUTIONS” (Hoffmann-La Roche Inc., priority 2020, published 2023).
Like-named read-outs stand apart in the source and are kept apart here. Blank lines part the entries; values can stand above or below the compound they belong to.

Legend:
Type in all cases: physicochemical
[1] = FFA particle nucleation by DLS: interaction of bi- and trivalent cations with lauric acid; settings: for FFA salt particle formation and growth (DLS): metal ion 0-30 μM, 70 hours, 5° C.
Protocol: DLS experiments were performed on DynaPro(R) plate reader (Wyatt, Santa Barbara, Calif.). The DLS plate reader is flushed with nitrogen 5 hours before commencing the measurements and cooled down to 5° C. during the entire duration of the measurements. 200 μL of sample solutions comprising of 20 μg lauric acid (LA) in 20 mM L-Histidine buffer at pH 6.0 supplemented with 6% v/v DMSO, and varying amounts of metal ions (Al^3+, Fe^3, Zn^2+, Mg^2+, Ca^2+, Ni^2+) were mixed in the cuvettes of black glass bottom 96 well plates (Greiner Bio-One GmbH, Frickenhausen, Germany). FFA nucleation and particle growth were measured over 40-70 hours using a 633 nm laser and a backscatter detection system at 158°. The hydrodynamic particle radius (rH) was determined by fitting a cumulant fit to the obtained auto-correlation function. […] The laser power was adjusted before each measurement sequence and kept constant during the entire measurement. The attenuation level was set to zero for all measurements in order to collect the maximum amount of scattered light. Aluminium (Al), Iron (Fe), Zink (Zn), Magnesium (Mg), Calcium (Ca) and Nickel (Ni) stock solutions were prepared at 4 mM in Milli-Q water pH 2.5 from their respective salts and stored at 2-8° C. until used. Diluted sample solutions (100×) were freshly prepared in Milli-Q water pH 2.5. The DLS assay buffer was added to the salt sample solutions to attain metal ion target concentrations of 0, 1, 3, 10 and 30 μM. Particles size (rH) and intensity were measured over a period of 70 h as described above.

[2] = Spiking study with free fatty acids and aluminum, visible particles by Seidenader (Table 4A); settings: Seidenader results
Protocol: A 100 ppm aluminum stock solution was prepared from aluminum chloride hexahydrate in 20 mM histidine acetate pH 5.5. The actual concentration of aluminum was determined by inductively-coupled plasma mass spectrometry (ICP-MS). This stock solution was then diluted to 10 ppm Al^3+ and sterile-filtered through a 0.22 μm porosity filter cartridge (Sterivex-GV, Millipore).
All vials were sealed with 20 mm teflonized injection stoppers (D777-1, Daikyo) and aluminum crimp caps and homogenized on a MaxQ™ 4000 Benchtop Orbital Shaker (Thermo Scientific™, Waltham, Mass., USA) for 1 hour at 25° C.
LAMA-10 only comprised polysorbate 20 and was used for the preparation of negative controls. All samples were prepared in triplicates.
Samples were stored at 5° C. and the formation of visible particles was assessed for up to 28 days using a black/white and a Seidenader V 90-T instrument (Seidenader Maschinenbau GmbH, Markt Schwaben, DE) as described above.
Samples were analyzed for the presence of visible particles after storage at 2-8° C. for 0, 1 day, 7 days and 28 days using the (A) Seidenader and (B) E/P box.

[3] = FFA particle nucleation by DLS: impact of aluminum concentration on particle kinetics; settings: 20 ppb Al; 5° C.; not captured in the 40 hours experiment
Protocol: DLS experiments were performed on DynaPro(R) plate reader (Wyatt, Santa Barbara, Calif.). The DLS plate reader is flushed with nitrogen 5 hours before commencing the measurements and cooled down to 5° C. during the entire duration of the measurements. 200 μL of sample solutions comprising of 20 μg lauric acid (LA) in 20 mM L-Histidine buffer at pH 6.0 supplemented with 6% v/v DMSO, and varying amounts of metal ions (Al^3+, Fe^3, Zn^2+, Mg^2+, Ca^2+, Ni^2+) were mixed in the cuvettes of black glass bottom 96 well plates (Greiner Bio-One GmbH, Frickenhausen, Germany). FFA nucleation and particle growth were measured over 40-70 hours using a 633 nm laser and a backscatter detection system at 158°. The hydrodynamic particle radius (rH) was determined by fitting a cumulant fit to the obtained auto-correlation function. […]
Al sample solutions (100×) in 20 mM Histidine buffer pH 6.0 were prepared from a sterile 50 ppm Al stock solution (20 mM Glycine pH 2.5) and were spiked into the DLS assay buffer at target concentrations of 0, 20, 40, 60 and 100 ppb Al. Particle nucleation and growth was measured over a period of 40 hours as described above.
Quantitative analysis was performed by analyzing the intensity of the scattered laser light of the FFA particles over time by fitting a sigmoidal Boltzmann function to the growth curves. […]

[4] = FFA metal nucleation by DLS in presence of DTPA and real glass leachables; settings: lauric acid and real glass leachables
Protocol: (§1) DLS experiments were performed on DynaPro(R) plate reader (Wyatt, Santa Barbara, Calif.). The DLS plate reader is flushed with nitrogen 5 hours before commencing the measurements and cooled down to 5° C. during the entire duration of the measurements. 200 μL of sample solutions comprising of 20 μg lauric acid (LA) in 20 mM L-Histidine buffer at pH 6.0 supplemented with 6% v/v DMSO, and varying amounts of metal ions (Al^3+, Fe^3, Zn^2+, Mg^2+, Ca^2+, Ni^2+) were mixed in the cuvettes of black glass bottom 96 well plates (Greiner Bio-One GmbH, Frickenhausen, Germany). FFA nucleation and particle growth were measured over 40-70 hours using a 633 nm laser and a backscatter detection system at 158°. The hydrodynamic particle radius (rH) was determined by fitting a cumulant fit to the obtained auto-correlation function. The lower and upper boundary for the cumulant fit was set to lag times τ of 10 μs and 1000 μs respectively. The laser power was adjusted before each measurement sequence and kept constant during the entire measurement. The attenuation level was set to zero for all measurements in order to collect the maximum amount of scattered light.
Representative glass leachables solutions were prepared according to a procedure disclosed in Allmendinger et al. (Allmendinger et al. 2021). […]

[5] = FFA metal nucleation by DLS in presence of DTPA, Fe nucleation study
Protocol: as §1
For the Al nucleation study, a metal ion target concentration of 2 μM was used. […] For the Fe nucleation study, the target concentration of Fe was 4 μM. The final concentration of DTPA was either 0, 0.04, 0.4, 2.0, 4.0 or 40 μM resulting in molar ratios (DTPA:Fe) of 0, 0.01, 0.1, 0.5, 1.0 and 10, respectively. DLS measurements were conducted over 50 hours at 5° C. as described above.

[6] = Spiking study with partially degraded polysorbate 20 and aluminum, visible particles by E/P box; settings: 0.05 mM DTPA or 0.005% (w/v) EDTA; 250 ppb aluminum; partially degraded polysorbate below the solubility limit
Protocol: Diluted aluminum solutions comprising in 20 mM histidine acetate pH 5.5 were prepared as described above and filled into 20 mL type I borosilicate glass vials (Schott, Mainz, DE). […] Vials were sealed with 20 mm teflonized injection stoppers (D777-1, Daikyo) and aluminum crimp caps and homogenized on a MaxQ™ 4000 Benchtop Orbital Shaker (Thermo Scientific™, Waltham, Mass., USA) for 1 hour at 25° C.
PS20-Std only comprised non-degraded polysorbate 20 and was used for the preparation of negative controls. All samples were prepared in triplicates.
Samples were stored at 5° C. and particle formation was assessed for up to 28 days by visual inspection using a black/white panel according Ph.
Samples were visually inspected (E/P box) for the presence of visible particles after incubation for 0, 1 day, 7 days and 28 days at 2-8° C.

[7] = Spiking study with different PS20 and PS80 grades, aluminum and DTPA, visible particles by E/P (Table 10); settings: 50 μM DTPA, 250 ppb aluminum, all grades of PS
Protocol: (§2) Super refined (SR) PS20 and PS80, high purity (HP) PS20 and PS80, as well as pure oleic acid (POA) PS80 were enzymatically hydrolyzed by 10% using immobilized enzymes (Graf et al. 2020) (mucor miehei lipase (MML), Candida antarctica lipase (CAL) and Candida antarctica lipase B (CALB)). […] Diluted aluminum solutions comprising in 20 mM histidine acetate pH 5.5 were prepared as described above and filled into 20 mL type I borosilicate glass vials (Schott, Mainz, DE). Samples containing either 0 or 250 ppb of aluminum (Al^3) were spiked with different PS stock solutions (HP PS20, SR PS20, HP PS80, SR PS80, POA PS80; degradation level of 0 or 10%). In addition, samples containing 250 ppb aluminum were supplemented with 0.05 mM diethylenetriaminepentaacetic acid (DTPA) prior spiking with partially degraded PS. Vials were sealed with 20 mm teflonized injection stoppers (D777-1, Daikyo) and aluminum crimp caps and homogenized on a MaxQTM 4000 Benchtop Orbital Shaker (Thermo ScientificTM, Waltham, Mass., USA) for 1 hour at 25° C. […] Different grades of non-degraded polysorbate 20 and 80 served as negative controls. All samples were prepared in triplicates. Samples were stored at 5° C. and particle formation was assessed for up to 22 days by visual inspection using a black/white panel according Ph. Eur. 2.9.20. and enhanced visual inspection ([…] instrument) as described above.

[8] = Spiking study with different PS20 and PS80 grades, aluminum and DTPA, visible particles by Seidenader (Table 11); settings: DTPA, 250 ppb aluminum, independent of PS grade or enzyme
Protocol: as §2

[9] = Solubility of free fatty acids in histidine acetate buffer pH 5.5, visible particles by Seidenader; settings: kinetic from dmso stock
Protocol: In brief, lauric acid (“LA”. Sigma-Aldrich/Merck, Darmstadt, DE) and myristic acid (“MA”, Sigma-Aldrich/Merck, Darmstadt, DE) were suspended in PS20 HP (Croda, Edison, N.J., USA) and stirred (150 rpm) for 30 min at 60° C. until both FFAs were fully dissolved. Solutions were diluted 1:5 with pre-warmed (60° C.) water for injection (WFI) and immediately filtered through 0.22 μm PVDF Steriflip filters (Merck Millipore, Darmstadt, DE). The concentration of LA and MA in FFA stock solutions was verified by LC-MS as described by Honemann et al. (Honemann et al. 2019) LA/MA/PS20 stock solutions were spiked into 20 mM histidine acetate buffer pH 5.5 (1:500 dilution, n=3) and homogenized on a MaxQ™ 4000 Benchtop Orbital Shaker (Thermo Scientific™, Waltham, Mass., USA) for 1 hour at 25° C. Samples were stored at 5° C. and analyzed for visible particles after 0, 1, 7 and 28 days using a black/white panel according Ph. Eur. 2.9.20 (European Directorate for the Quality of Medicines) and a Seidenader V 90-T instrument (Seidenader Maschinenbau GmbH, Markt Schwaben, DE). […]
Free fatty acid (FFA) stock solutions of lauric acid (LA) and myristic acid (MA) were spiked into 20 mM histidine acetate buffer pH 5.5 (n=3). Samples were analyzed for the presence of visible particles after incubation at 2-8° C. for 0, 1 day, 7 days and 28 days using the (A) Seidenader and (B) E/P box.

SMILES: [Ni+2] [Ni]
- FFA salt particle formation and growth (DLS) [1]: did not lead to FFA salt particle formation or growth

SMILES: [Mg+2] [Mg]
- FFA salt particle formation and growth (DLS) [1]: did not lead to FFA salt particle formation or growth

- Trace amount of aluminum sufficient to complex free fatty acids and form visible particles [2]: 10 ppb
- FFA salt particle formation and growth (DLS) [1]: particle formation and growth
SMILES: [Al+3] [Al]
- Inflection point of the sigmoidal curve fit of scattering intensity [3]: around 65 hours

SMILES: [Zn+2] [Zn]
- FFA salt particle formation and growth (DLS) [1]: did not lead to FFA salt particle formation or growth

SMILES: [Ca+2] [Ca]
- FFA salt particle formation and growth (DLS) [1]: did not lead to FFA salt particle formation or growth

- Hydrodynamic particle radius rH ([1]; instant particle formation, no further increase over time): 50-60 nm
- FFA salt particle formation and growth (DLS) [1]: particle formation and growth
SMILES: [Fe+3] [Fe]

- Molar ratio of chelator to Al efficient in mitigating particle formation [4]: at least 1.5
- Particle radius ([5]; DTPA to Fe ratio of 0.5): only slightly changed
- Scattering intensity ([5]; DTPA to Fe ratio of 0.5): significantly decreased
- Particle formation and growth (DLS) ([5]; equimolar amounts of DTPA, lauric acid and 4 μM Fe): complete suppression
- Formation of visible FFA particles on addition of chelator [6]: successfully prevented
- Visible particles in presence of the chelator [7]: no particles were observed
- Particle formation in presence of the chelator [8]: significantly mitigated
SMILES: O=C(O)CN(CCN(CC(=O)O)CC(=O)O)CCN(CC(=O)O)CC(=O)O [DTPA, Diethylenetriaminepentaacetic acid]

SMILES: CCCCCCCCCCCC(=O)O [lauric acid]
- solubility at 28 days ([9]; 20 mM histidine acetate buffer with 0.04% PS20, 5 °C, aqueous with cosolvent or surfactant or cyclodextrin, lauric and myristic acid together, histidine acetate buffer pH 5.5, 0.04% PS20, 2-8° C., 28 days, Seidenader and E/P box, read-out: Solubility limit (concentration at which free fatty acids exceeded the solubility limit)): < 12.5 µg/mL

- solubility at 28 days ([9]; 5 °C, pH 5.5, aqueous with cosolvent or surfactant or cyclodextrin): < 5 µg/mL
SMILES: CCCCCCCCCCCCCC(=O)O [myristic acid]
